Patent publication US11203601B2, “Tricyclic compounds as glycogen synthase kinase 3 (GSK3) inhibitors and uses thereof” (The Broad Institute, Inc., priority 2017, dated 2021)

Key:
Experiment in all cases: Carna kinome panel
Assay type in all cases: biochemical
Settings in all cases: read-out: % Inhibition at 10 μM of the test compound
ALK(C1156Y) = ALK(C1156Y) (Homo sapiens (Human), UniProt Q9UM73, C1156Y)
CK1ε = CK1ε (Homo sapiens (Human), UniProt P49674)
MST1 = MST1 (Homo sapiens (Human), UniProt Q13043)
SRC = SRC (Homo sapiens (Human), UniProt P12931)
TIE2 = TIE2 (Homo sapiens (Human), UniProt Q02763)
PIM3 = PIM3 (Homo sapiens (Human), UniProt Q86V86)
MAP3K4_Cascade = MAP3K4_Cascade (Homo sapiens (Human), UniProt Q9Y6R4)
EPHA5 = EPHA5 (Homo sapiens (Human), UniProt P54756)
IRAK4 = IRAK4 (Homo sapiens (Human), UniProt Q9NWZ3)
TSSK2 = TSSK2 (Homo sapiens (Human), UniProt Q96PF2)
IGF1R = IGF1R (Homo sapiens (Human), UniProt P08069)
IRR = IRR (Homo sapiens (Human), UniProt P14616)
RET = RET (Homo sapiens (Human), UniProt P07949)
SRPK1 = SRPK1 (Homo sapiens (Human), UniProt Q96SB4)
QIK = QIK (Homo sapiens (Human), UniProt Q9H0K1)
NEK4 = NEK4 (Homo sapiens (Human), UniProt P51957)
RON = RON (Homo sapiens (Human), UniProt Q04912)
SGK3 = SGK3 (Homo sapiens (Human), UniProt Q96BR1)
EPHA6 = EPHA6 (Homo sapiens (Human), UniProt Q9UF33)
Method: Briefly, a selection of compounds was screened against a panel of kinases at a single concentration of 10 μM. […] This was completed using one of two assays, depending on the kinase being examined: 1) IMAP Assay. A solution of 4× inhibitor, 4× substrate/ATP/metal solution and 2× kinase solution was prepared with assay buffer (20 mM HEPES, 0.01% Tween-20, 2 mM DTT, pH 7.4) and mixed, then incubated in 384-well black plates for 1 hour at room temperature. The IMAP binding reagent (IMAP Screening Express kit; Molecular Devices) was added to each well and incubated for 30 minutes. […] 2) Off-Chip Mobility Shift Assay (MSA). A solution of 4× inhibitor, 4× substrate/ATP/metal solution and 2× kinase solution was prepared with assay buffer (20 mM HEPES, 0.01% Triton X-100, 2 mM DTT, pH 7.5) and mixed, then incubated in 384-well plates for 1 or 5 hours depending on the kinase, at room temperature. Termination buffer (QuickScout Screening assist MSA; Carna Biosciences) was added to each well. The entire reaction mixture was then applied to a LabChip3000 system (Caliper Life Science), and the product and substrate peptide peaks were separated and quantified. […] The entire reaction mixture was then applied to a LabChip3000 system (Caliper Life Science), and the product and substrate peptide peaks were separated and quantified.

MST3 = MST3 (Homo sapiens (Human), UniProt Q9Y6E0)
Haspin = Haspin (Homo sapiens (Human), UniProt Q8TF76)
AurC = AurC (Homo sapiens (Human), UniProt Q9UQB9)
SPHK1 = SPHK1 (Homo sapiens (Human), UniProt Q9NYA1)
AurA/TPX2 = AurA/TPX2 (Homo sapiens (Human), UniProt O14965)
MET(M1250T) = MET(M1250T) (Homo sapiens (Human), UniProt P08581, M1250T)
MOS_Cascade = MOS_Cascade (Homo sapiens (Human), UniProt P00540)
SIK = SIK (Homo sapiens (Human), UniProt P57059)
FGFR3 = FGFR3 (Homo sapiens (Human), UniProt P22607)
PDGFRα(V561D) = PDGFRα(V561D) (Homo sapiens (Human), UniProt P16234, V561D)
PLK2 = PLK2 (Homo sapiens (Human), UniProt Q9NYY3)
CaMK4 = CaMK4 (Homo sapiens (Human), UniProt Q16566)
EGFR(T790M) = EGFR(T790M) (Homo sapiens (Human), UniProt P00533, T790M)
FGFR2 = FGFR2 (Homo sapiens (Human), UniProt P21802)
ABL(T315I) = ABL(T315I) (Homo sapiens (Human), UniProt P00519, T315I)
CDK4/CycD3 = CDK4/CycD3 (Homo sapiens (Human), UniProt P11802)
MARK2 = MARK2 (Homo sapiens (Human), UniProt Q7KZI7)
CDC2/CycB1 = CDC2/CycB1 (Homo sapiens (Human), UniProt P06493)
TYK2 = TYK2 (Homo sapiens (Human), UniProt P29597)
PDGFRα(T674I) = PDGFRα(T674I) (Homo sapiens (Human), UniProt P16234, T674I)
HIPK3 = HIPK3 (Homo sapiens (Human), UniProt Q9H422)

CDK4/CycD3, sequence (P11802 whole entry, looked up): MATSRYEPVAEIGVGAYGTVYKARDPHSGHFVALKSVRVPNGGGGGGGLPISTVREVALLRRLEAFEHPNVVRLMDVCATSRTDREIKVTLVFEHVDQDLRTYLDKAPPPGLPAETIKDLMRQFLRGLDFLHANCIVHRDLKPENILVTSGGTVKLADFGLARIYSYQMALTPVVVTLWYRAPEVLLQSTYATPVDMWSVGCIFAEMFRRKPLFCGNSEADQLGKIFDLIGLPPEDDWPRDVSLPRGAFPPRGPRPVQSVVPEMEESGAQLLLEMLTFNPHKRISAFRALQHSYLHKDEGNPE
CDK4/CycD3, sequence (P30281 whole entry partner, looked up): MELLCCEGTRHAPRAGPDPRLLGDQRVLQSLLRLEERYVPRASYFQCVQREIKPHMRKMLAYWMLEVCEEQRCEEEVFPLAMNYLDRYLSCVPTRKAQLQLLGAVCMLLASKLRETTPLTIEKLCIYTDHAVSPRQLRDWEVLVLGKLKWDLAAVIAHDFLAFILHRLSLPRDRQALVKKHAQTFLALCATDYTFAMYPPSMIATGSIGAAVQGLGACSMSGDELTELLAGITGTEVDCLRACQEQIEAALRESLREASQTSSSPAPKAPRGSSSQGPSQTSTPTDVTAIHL
CK1ε, sequence (P49674 whole entry): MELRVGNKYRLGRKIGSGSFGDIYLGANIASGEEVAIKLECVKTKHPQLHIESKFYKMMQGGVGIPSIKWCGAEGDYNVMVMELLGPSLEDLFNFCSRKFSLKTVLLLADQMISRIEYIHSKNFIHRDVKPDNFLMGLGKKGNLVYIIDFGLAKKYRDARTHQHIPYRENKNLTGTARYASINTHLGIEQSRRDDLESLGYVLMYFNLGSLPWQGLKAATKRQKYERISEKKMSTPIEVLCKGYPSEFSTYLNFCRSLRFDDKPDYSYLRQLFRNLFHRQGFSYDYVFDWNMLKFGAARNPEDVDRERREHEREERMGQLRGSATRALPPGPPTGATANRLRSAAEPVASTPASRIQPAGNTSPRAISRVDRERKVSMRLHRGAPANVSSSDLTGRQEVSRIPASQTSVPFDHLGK
SIK, sequence (P57059 whole entry): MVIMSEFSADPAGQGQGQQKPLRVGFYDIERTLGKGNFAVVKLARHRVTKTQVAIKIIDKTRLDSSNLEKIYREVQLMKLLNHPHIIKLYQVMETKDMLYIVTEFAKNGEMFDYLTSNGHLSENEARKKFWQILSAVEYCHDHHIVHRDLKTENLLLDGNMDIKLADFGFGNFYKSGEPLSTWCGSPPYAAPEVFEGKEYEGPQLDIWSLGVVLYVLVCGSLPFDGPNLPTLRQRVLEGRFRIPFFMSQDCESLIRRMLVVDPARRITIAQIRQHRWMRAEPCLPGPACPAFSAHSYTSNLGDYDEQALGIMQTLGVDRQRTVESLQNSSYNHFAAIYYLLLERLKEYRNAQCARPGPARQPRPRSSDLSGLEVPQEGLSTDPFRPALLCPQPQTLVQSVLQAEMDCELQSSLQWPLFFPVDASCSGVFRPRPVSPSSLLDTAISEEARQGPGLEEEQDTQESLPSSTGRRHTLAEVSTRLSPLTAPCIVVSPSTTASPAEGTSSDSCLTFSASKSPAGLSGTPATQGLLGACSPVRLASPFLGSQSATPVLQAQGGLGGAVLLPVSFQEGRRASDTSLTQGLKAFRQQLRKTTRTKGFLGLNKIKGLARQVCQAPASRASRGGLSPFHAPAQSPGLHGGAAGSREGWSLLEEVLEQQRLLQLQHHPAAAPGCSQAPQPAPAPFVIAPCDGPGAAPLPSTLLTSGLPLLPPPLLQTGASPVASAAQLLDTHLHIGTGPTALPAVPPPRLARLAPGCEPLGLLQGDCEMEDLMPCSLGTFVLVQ
NEK4, sequence (P51957 whole entry): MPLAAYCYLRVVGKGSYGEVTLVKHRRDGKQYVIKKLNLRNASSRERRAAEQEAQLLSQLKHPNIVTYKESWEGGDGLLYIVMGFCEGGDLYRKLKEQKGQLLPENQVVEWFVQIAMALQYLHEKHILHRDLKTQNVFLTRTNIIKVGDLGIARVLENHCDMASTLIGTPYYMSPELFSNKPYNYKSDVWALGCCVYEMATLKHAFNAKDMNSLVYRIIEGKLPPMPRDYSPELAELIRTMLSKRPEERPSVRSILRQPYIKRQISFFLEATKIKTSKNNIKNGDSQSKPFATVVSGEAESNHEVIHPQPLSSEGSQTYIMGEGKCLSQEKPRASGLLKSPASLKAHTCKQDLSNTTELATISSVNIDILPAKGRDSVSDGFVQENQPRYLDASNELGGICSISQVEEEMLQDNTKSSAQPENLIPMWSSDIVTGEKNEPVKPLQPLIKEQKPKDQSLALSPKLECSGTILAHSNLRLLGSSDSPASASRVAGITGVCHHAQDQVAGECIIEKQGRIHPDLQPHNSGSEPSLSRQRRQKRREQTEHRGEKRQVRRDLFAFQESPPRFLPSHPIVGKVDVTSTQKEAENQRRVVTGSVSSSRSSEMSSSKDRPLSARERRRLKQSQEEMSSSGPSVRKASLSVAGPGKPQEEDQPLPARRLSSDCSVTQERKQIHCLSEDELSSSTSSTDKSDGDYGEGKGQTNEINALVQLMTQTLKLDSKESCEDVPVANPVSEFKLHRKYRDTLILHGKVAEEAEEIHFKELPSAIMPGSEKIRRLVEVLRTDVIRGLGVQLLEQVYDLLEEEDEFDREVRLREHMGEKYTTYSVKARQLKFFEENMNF
CaMK4, sequence (Q16566 whole entry): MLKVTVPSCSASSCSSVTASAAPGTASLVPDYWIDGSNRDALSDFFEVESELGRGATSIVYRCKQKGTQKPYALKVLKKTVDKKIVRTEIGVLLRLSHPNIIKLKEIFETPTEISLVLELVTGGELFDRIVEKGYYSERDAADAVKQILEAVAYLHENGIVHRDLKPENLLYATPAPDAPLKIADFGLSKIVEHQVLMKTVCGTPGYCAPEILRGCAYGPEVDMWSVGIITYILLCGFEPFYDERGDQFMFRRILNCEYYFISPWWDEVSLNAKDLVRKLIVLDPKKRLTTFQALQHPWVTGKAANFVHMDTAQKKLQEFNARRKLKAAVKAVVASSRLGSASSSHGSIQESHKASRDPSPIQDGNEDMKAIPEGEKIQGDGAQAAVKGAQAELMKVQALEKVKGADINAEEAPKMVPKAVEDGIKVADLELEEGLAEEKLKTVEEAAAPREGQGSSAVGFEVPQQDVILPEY
AurC, sequence (Q9UQB9 whole entry): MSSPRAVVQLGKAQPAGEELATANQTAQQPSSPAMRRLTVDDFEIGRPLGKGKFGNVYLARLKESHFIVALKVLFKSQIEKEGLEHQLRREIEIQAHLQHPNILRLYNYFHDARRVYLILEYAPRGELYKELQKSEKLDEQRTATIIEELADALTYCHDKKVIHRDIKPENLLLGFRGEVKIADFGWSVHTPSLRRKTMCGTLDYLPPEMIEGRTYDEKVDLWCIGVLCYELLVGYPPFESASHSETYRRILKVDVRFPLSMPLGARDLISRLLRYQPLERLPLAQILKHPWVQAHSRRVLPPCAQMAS
IGF1R, sequence (P08069 31-1367): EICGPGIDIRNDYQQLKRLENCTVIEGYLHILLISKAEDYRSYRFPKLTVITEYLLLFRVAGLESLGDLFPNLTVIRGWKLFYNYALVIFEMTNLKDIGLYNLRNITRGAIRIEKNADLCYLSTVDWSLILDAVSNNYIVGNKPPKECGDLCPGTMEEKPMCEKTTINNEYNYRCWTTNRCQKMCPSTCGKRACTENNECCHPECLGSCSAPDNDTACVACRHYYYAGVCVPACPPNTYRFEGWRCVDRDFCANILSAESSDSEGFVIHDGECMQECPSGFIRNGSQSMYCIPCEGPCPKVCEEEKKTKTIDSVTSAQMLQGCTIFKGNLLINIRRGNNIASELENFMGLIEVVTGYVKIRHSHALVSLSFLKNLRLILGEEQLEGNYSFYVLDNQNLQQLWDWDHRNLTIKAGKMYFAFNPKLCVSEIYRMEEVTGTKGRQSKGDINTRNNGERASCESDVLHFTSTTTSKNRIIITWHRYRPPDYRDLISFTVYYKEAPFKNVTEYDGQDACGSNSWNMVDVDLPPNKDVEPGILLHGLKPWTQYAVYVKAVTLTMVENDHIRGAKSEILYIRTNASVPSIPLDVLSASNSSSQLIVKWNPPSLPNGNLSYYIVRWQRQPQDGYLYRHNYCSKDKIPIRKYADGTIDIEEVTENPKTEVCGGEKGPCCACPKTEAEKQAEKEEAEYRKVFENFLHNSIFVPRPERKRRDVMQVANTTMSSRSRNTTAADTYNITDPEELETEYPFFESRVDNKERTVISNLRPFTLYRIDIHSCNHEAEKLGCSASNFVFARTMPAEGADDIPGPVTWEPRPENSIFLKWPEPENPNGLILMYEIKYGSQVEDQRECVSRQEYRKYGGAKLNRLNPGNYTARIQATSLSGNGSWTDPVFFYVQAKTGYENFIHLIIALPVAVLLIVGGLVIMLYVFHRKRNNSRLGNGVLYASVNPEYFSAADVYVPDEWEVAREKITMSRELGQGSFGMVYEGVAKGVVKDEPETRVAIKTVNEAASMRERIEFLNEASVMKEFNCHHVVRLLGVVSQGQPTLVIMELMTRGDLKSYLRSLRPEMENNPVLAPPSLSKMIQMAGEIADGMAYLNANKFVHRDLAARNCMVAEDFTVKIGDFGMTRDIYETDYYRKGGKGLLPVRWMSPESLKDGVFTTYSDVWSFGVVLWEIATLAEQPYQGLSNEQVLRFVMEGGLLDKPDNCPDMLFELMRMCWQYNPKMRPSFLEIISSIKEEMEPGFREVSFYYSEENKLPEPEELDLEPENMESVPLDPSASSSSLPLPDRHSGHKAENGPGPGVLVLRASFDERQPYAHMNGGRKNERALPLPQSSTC

With `CCC1(c2ccccc2)C2=C(CC(C)(C)CC2=O)Nc2ncsc21` (stereo not shown) [Compound 1, 9-Ethyl-6,6-dimethyl-9-phenyl-5,6,7,9-tetrahydrothiazolo[4,5-b]quinolin-8(4H)-one] the inhibition at 10 µM (ALK(C1156Y)) was -3.7%, the inhibition at 10 µM (CK1ε) was 3.1% and the inhibition at 10 µM (MST1) was -6.6%. The inhibition at 10 µM (SRC) was -2.2%, the inhibition at 10 µM (TIE2) was 11.1% and the inhibition at 10 µM (PIM3) was 1.1%. It also gave an inhibition at 10 µM (MAP3K4_Cascade) of 10.1%, an inhibition at 10 µM (EPHA5) of 9.3% and an inhibition at 10 µM (IRAK4) of -1.2%. The inhibition at 10 µM (TSSK2) was 3.1%, the inhibition at 10 µM (IGF1R) was 2% and the inhibition at 10 µM (IRR) was 6.6%. The inhibition at 10 µM (RET) was -1.9%, the inhibition at 10 µM (SRPK1) was -0.3% and the inhibition at 10 µM (QIK) was 6.9%. It also gave an inhibition at 10 µM (NEK4) of -2.5%, an inhibition at 10 µM (RON) of -3.9% and an inhibition at 10 µM (SGK3) of -2.3%. For the same compound, the inhibition at 10 µM (EPHA6) was 21.3%, the inhibition at 10 µM (MST3) was 1.4% and the inhibition at 10 µM (Haspin) was 1.5%. It also gave an inhibition at 10 µM (AurC) of 8.5%, an inhibition at 10 µM (SPHK1) of -6.5% and an inhibition at 10 µM (AurA/TPX2) of -2.7%. It also gave an inhibition at 10 µM (MET(M1250T)) of -4.2%, an inhibition at 10 µM (MOS_Cascade) of 12.4% and an inhibition at 10 µM (SIK) of 5.6%. The inhibition at 10 µM (FGFR3) was 1.6%, the inhibition at 10 µM (PDGFRα(V561D)) was 2.8% and the inhibition at 10 µM (PLK2) was 1.7%. It also gave an inhibition at 10 µM (CaMK4) of -5.4%, an inhibition at 10 µM (EGFR(T790M)) of -13.8% and an inhibition at 10 µM (FGFR2) of 1.4%. For the same compound, the inhibition at 10 µM (ABL(T315I)) was 0.4%, the inhibition at 10 µM (CDK4/CycD3) was 18.1% and the inhibition at 10 µM (MARK2) was 0.4%. For the same compound, the inhibition at 10 µM (CDC2/CycB1) was 22.7%, the inhibition at 10 µM (TYK2) was -18.9% and the inhibition at 10 µM (PDGFRα(T674I)) was 0.3%. For the same compound, the inhibition at 10 µM (HIPK3) was -1.9%.
